Patent publication US20070254932A1, “Drugs for Treating Duplication of Hypertension With Hyperuricemia and/or Hypercholesterolemia” (priority 2004, published 2007)

Tests used:
[1] = test system: SHR (Spontaneously hypertensive rat); experiment: Systolic blood pressure of SHR by tail cuff method; format: in vivo; settings: 5 hours after administration, HCTZ 10 mg/kg, pratosartan 3 mg/kg, mean ± SD, in mmHg (unit assumed); for systolic blood pressure level, Day 1: before drug 220-222
Procedure: The systolic blood pressure level of male 20 weeks old SHR (Spontaneously hypertensive rat, SPF grade) was measured by tail cuff methods, and animals were randomized into 4 groups to balance the systolic blood pressure level among groups. 0.5% methylcellulose (MC) or drugs suspended in 0.5% MC were administered for 28 days, and systolic blood pressure levels after 5 hours of drug administration were measured at day 1, 7, 14 and 28. In table 3 , experimental groups, subject substances, doses, and the measured blood pressure levels (mean±standard deviation) were shown in table 4. Further, the subject substances were hydrochlorothiazide (HCTZ), pratosartan, and co-administration of HCTZ and pratosartan. The dose of HCTZ and pratosartan were 10 mg/kg and 3 mg/kg, respectively, and the dosage volume was 2 mL/kg in each case.

male 6 weeks old SD rats = experiment: Uricosuric action estimated by delayed disappearance of blood phenol red; format: in vivo, rat; settings: for The enhance rate of uric acid excretion (%): phenol red 75 mg/kg i.v. 3 h later, serum 1 h after, control group = 100%, mean ± SD
Procedure: The uricosuric action is estimated by the delayed disappearance of blood phenol red level as a marker. Namely, male 6 weeks old SD rats were orally administered 0.5% methylcellulose (MC) or pratosartan (30 mg/kg or 100 mg/kg), and after three hours, phenol red solution (75 mg/kg) was intravenously adirninstered. One hour after phenol red administration, blood sample was collected from abdominal aorta under ether anesthesia, and the amount of phenol red in serum was determined. The amount of phenol red level in control group was taken as 100%, and the delayed rate of phenol red disappearance from blood in pratosartan treated group was estimated as the enhance rate of uric acid excretion (%). In table 1, experimental groups, subject substances, doses and the enhance rates of uric acid excretion (mean±standard deviation).

[2] = test system: patients with mild or moderate essential hypertension; experiment: Serum cholesterol level in patients with essential hypertension; format: in vivo, human
Procedure: 107 patients with mild or moderate essential hypertension were administered at dose of from 40 to 160 mg/day was administered every four weeks by degrees if the hypotensive action was insufficient. Serum cholesterol level before pratosartan administration was compared with that of the last day during pratosartan administration in each patient. Also, a part of patients were other co-administered pratosartan and conventionally known hypolipidemic drugs. General names of co-administered drugs, doses and number of patients were as follows. Namely, the list was pravastatin (10 mg/day, 3 patients), simvastatin (5 mg/day, 3 patients), cerivastatin (0.15 mg/day, 2 patients), atorvastatin (5 mg/day, 1 patients), fenofibrate (150 mg/day, 1 patient) and probucol (500 mg/day, 1 patient). The results when the patients were classified in the presence and absence of other co-administered drugs, were shown in table 6 and 7. The result in the presence of co-administered drugs was shown in table 6, and the result in the absence of co-administered drug was shown in […]. Further, data were shown mean±standard deviation.

[3] = test system: patients with mild and moderate essential hypertension complicated with hyperuricemia; experiment: Serum uric acid level in hypertensive patients complicated with hyperuricemia; format: in vivo, human; settings: 17 patients, 40 to 160 mg/day
Procedure: Studies were carried out intended for mild and moderate essential hypertension. 17 patients complicated with hyperuricemia were administered pratosartan, and serum uric acid levels (mg/dL) before drug administration and the last day during administration were determined. Further, the dose of from 40 to 160 mg/day was administered every four weeks by degrees if the hypotensive action was insufficient.

Structure (SMILES) | systolic blood pressure level, Day 1 [1] | systolic blood pressure level, Day 7 [1] | systolic blood pressure level, Day 14 [1] | systolic blood pressure level, Day 28 [1] | The enhance rate of uric acid excretion (%) (male 6 weeks old SD rats; 30 mg/kg oral) | The enhance rate of uric acid excretion (%) (male 6 weeks old SD rats; 100 mg/kg oral) | excretion of uric acid (male 6 weeks old SD rats; SD rats, 30 or 100 mg/kg oral) | Serum cholesterol level, the last day during administration ([2]; 12 patients with co-administered hypolipidemic drugs, before drug administration 250.25 ± 45.16) | Serum cholesterol level, difference ([2]; 12 patients with co-administered hypolipidemic drugs, paired t-test P < 0.05) | Serum cholesterol level, the last day during administration ([2]; 95 patients without co-administered drug, before drug administration 206.28 ± 39.81) | Serum cholesterol level, difference ([2]; 95 patients without co-administered drug, paired t-test P < 0.01) | Serum cholesterol level, the last day during administration ([2]; all 107 patients, 40 to 160 mg/day, before drug administration 211.2 ± 42.6) | Serum cholesterol level, difference ([2]; all 107 patients, 40 to 160 mg/day, paired t-test P < 0.0001) | Serum uric acid level, the last day during administration ([3]; before drug administration 8.0 ± 1.1) | Serum uric acid level, difference ([3]; last day during administration versus before drug administration)
NS(=O)(=O)c1cc2c(cc1Cl)NCNS2(=O)=O [HCTZ, hydrochlorothiazide, reference compound] | 220 ± 2 | 219 ± 3 | 219 ± 4 | 214 ± 2 |  |  |  |  |  |  |  |  |  |  | 
CCCc1nc2c(n1Cc1ccc(-c3ccccc3-c3nnn[nH]3)cc1)C(=O)CCCC2 [pratosartan, 2-propyl-3-{[2′-(1H-tetrazole-5-yl)biphenyl-4-yl]methyl}-5,6,7,8-tetrahydrocyclohepta imidazole-4-(3H)-one] | 206 ± 2 | 190 ± 3 | 190 ± 1 | 189 ± 1 | 105 ± 10% | 172 ± 17% | enhance the excretion of uric acid | 214.58 ± 37.31 mg/dL | -35.67 ± 41.49 mg/dL | 197.66 ± 40.33 mg/dL | -8.62 ± 26.60 mg/dL | 199.6 ± 40.2 mg/dL | -11.7 ± 29.7 mg/dL | 7.4 ± 1.0 mg/dL | -0.7 ± 1.3 mg/dL
